From US20080260661A1, “Aminobutadiene-Based Uv Screens” (Fuji Photo Film B.V., priority 2004, published 2008)

Test: Absorption maximum of the structures
Assay type: physicochemical
Conditions: Table 1; measured in methanol, or if not soluble in methanol, in ethanol
Description: Absorption maxima of the structures in Tables 1 to 3 are measured in methanol, or if not soluble in methanol, in ethanol.

Compound	Absorption maximum
CCCCCCN(/C=C/C=C(/C(=O)OCC)S(=O)(=O)c1ccccc1)CCCCCC [Structure 1.1i]	373 nm
CCCCN(/C=C/C=C(\C(=O)OC)S(=O)(=O)c1ccc(C(C)(C)C)cc1)CCCC [Structure 1.2i]	373 nm
CCCCC(CC)COC(=O)C(=C/C=C/N(C)C)C(=O)OCC(CC)CCCC (stereo not drawn) [Structure 1.3i]	374 nm
CCCCCCN(/C=C/C=C(\C(=O)OCCOc1ccc(C(C)(C)CC)cc1C(C)(C)CC)S(=O)(=O)c1ccc(C)cc1)CCCCCC [Structure 1.4i]	374 nm
CCCCCCN(/C=C/C=C(C#N)C#N)CCCCCC [Structure 1.5i]	378 nm
CCCCN(/C=C/C=C1C(=O)CC(C)(C)CC1=O)CCCC [Structure 1.6r]	389 nm
CCCCN(/C=C/C=C(\C(C)=O)S(=O)(=O)c1ccc(C)cc1)CCCC [Structure 1.7r]	385 nm
CCCCCCN(/C=C/C=C(\C(C)=O)S(=O)(=O)c1ccccc1)CCCCCC [Structure 1.8r]	385 nm
CCCCCCN(/C=C/C=C1C(=O)N(C)N(C)C1=O)CCCCCC [Structure 1.9r]	387 nm
CCCCCCN(/C=C/C=C1C(=O)N(C)C(=O)N(C)C1=O)CCCCCC [Structure 1.10r]	388 nm
CCCCCCCCCCOC(=O)/C(=C/C=C/N(C)C)C(C)=O [Structure 1.12r]	394 nm
CCCCCCN(/C=C/C=C(C(C)=O)C(C)=O)CCCCCC [Structure 1.13r]	395 nm

Same assay, conditions: Table 2; measured in methanol, or if not soluble in methanol, in ethanol

Compound	Absorption maximum
CCCCCCCCCCOC(=O)/C(=C\C=C\N1CCCCC1)S(=O)(=O)c1ccccc1 [Structure 2.1i]	375 nm
CC(=O)/C(=C\C=C\N1CCOCC1)S(=O)(=O)c1ccccc1 [Structure 2.2r]	383 nm
CCCCC(CC)COC(=O)C(=CC=CN1CCCCC1)C(C)=O (stereo not drawn) [Structure 2.3r]	395 nm

Same assay, conditions: Table 3; measured in methanol, or if not soluble in methanol, in ethanol

Compound	Absorption maximum
Cc1ccc(S(=O)(=O)/C(C#N)=C\C=C2\OCC(C)(C)N2C)cc1 [Structure 3.1i]	361 nm
CCCCCCOC(=O)/C(=C/C=C1/OCC(C)(C)N1C)S(=O)(=O)c1ccccc1 [Structure 3.2i]	362 nm
CCCCCCCCCCCCN1/C(=C\C=C(C#N)C#N)OCC1(C)C [Structure 3.3i]	372 nm
CCCCCCCCCCN1/C(=C\C=C(\C(C)=O)S(=O)(=O)c2ccccc2)OCC1(C)C [Structure 3.4i]	373 nm
CCCCCCCCCCCCOC(=O)/C(C#N)=C/C=C1/OCC(C)(C)N1C [Structure 3.5i]	374 nm
CCCCCCCCCCN1CCC/C1=C/C=C(/C(=O)OCC)S(=O)(=O)c1ccc(OC)cc1 [Structure 3.6i]	375 nm
CCCCCCCCCCN1CCC/C1=C/C=C(/C(C)=O)S(=O)(=O)c1ccccc1 [Structure 3.7r]	392 nm
CCCCCCCCCCN1/C(=C\C=C(\C(=O)OCCCCCC)S(=O)(=O)c2ccc(C)cc2)SCC1C (stereo not drawn) [Structure 3.8r]	392 nm

Test: Appearance of formulation after application to the transparent substrate
Assay type: physicochemical
Conditions: not given

Compound	Appearance (colour) of formulation
CCCCCCCCCCOC(=O)/C(=C/C=C/N(C)C)C(C)=O [Structure 1.12r]	had a colourless appearance after application to the transparent substrate, except for structure 1.12r
